# Measured values as given in publication PMC6766655, “AhR–ROR-γt complex is a therapeutic target for MAP4K3/GLK^highIL-17A^high subpopulation of systemic lupus erythematosus” (The FASEB Journal, 2019).
# Columns and labels:
# HPK1 (MAP4K1) = target: T1, HPK1 (MAP4K1) (Homo sapiens, UniProt Q92918); assay: In vitro kinase assay, myelin basic protein as substrate (ADP-Glo); format: biochemical; settings: recombinant kinase domain
# T1 construct: Recombinant proteins of kinase domains of various MAP4Ks were used; purchased Promega
# T1 sequence (Q92918 17-274 limits assumed): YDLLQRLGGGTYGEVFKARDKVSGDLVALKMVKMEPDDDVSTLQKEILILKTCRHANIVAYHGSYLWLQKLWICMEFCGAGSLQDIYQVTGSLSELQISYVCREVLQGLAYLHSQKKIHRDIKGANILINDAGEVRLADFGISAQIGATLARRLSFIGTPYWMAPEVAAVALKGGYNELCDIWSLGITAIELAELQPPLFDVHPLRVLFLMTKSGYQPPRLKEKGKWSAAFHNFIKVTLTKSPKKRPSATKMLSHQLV
# [1] = tested on: human peripheral blood T cells; assay: ELISA of cytokines in supernatants of anti-CD3/CD28-stimulated human peripheral blood T cells; format: cell-based; settings: for inhibition of IL-17A: 1 μM
# Excerpt: Primary human T cells were freshly isolated and negatively selected from the PBLs of clinical samples using a cocktail of biotin-conjugated anti-CD19, anti-CD14, and anti-CD11b antibodies (BioLegend) on a magnetic cell separation column (Miltenyi Biotec, Bergisch Gladbach, Germany) ([26]). In addition, primary murine T cells were negatively selected from the spleens of mice using magnetically coupled antibodies against CD11b, B220, CD49b, CD235, and TER-119 (Miltenyi Biotec) ([18]).
# We further studied whether IL-17A production is abolished by verteporfin in human and murine T cells. We first tested the inhibitory effect of verteporfin in murine T cells stimulated with T-cell receptor (TCR) signaling (anti-CD3 plus anti-CD28 antibodies). […] This reduction is likely due to the inhibition of NF-κB activation ([18]) by the verteporfin treatment. This notion is supported by our published results that TCR-induced TNF-α and IFN-γ levels in T cells are inhibited by IKK-β conditional knockout ([18]). Next, we studied whether verteporfin attenuates IL-17A production using human peripheral blood T cells with stimulation. The levels of T-cell–secreted IL-17A in unstimulated T cells from patients with SLE and RA were enhanced compared with those from healthy controls (Fig. 5B). […] GLK overexpression in T cells selectively induces IL-17A production in Lck-GLK Tg mice ([18]). […] The inhibition of the production of other cytokines by the high-dose but not low-dose verteporfin treatment may be due to a requirement of higher concentration of verteporfin for an efficient inhibition of NF-κB activation.
# Figure 5 Verteporfin (C1) blocks IL-17 production of human T cells. A) ELISA of various cytokines in supernatants of murine primary T cells stimulated with anti-CD3 or CD28 and cotreated with C1 (5 or 10 μM) for 3 d. Means ± SD are shown; n = 3/group. B) ELISA of various cytokines in supernatants of human T cells. T cells were stimulated with anti-CD3 or CD28 and cotreated with C1 (1 or 5 μM) for 3 d. HC, healthy control; N.S., not significant. Means ± SD are shown. *P < 0.05, **P < 0.01, ***P < 0.001 (2-tailed Student’s t test).
# Supplementary Figure 6. Inhibition of IL-17A overproduction by verteporfin in inflammatory T cells from SLE or RA patients. (A) ELISA of various cytokines in supernatants of T cells from RA patients. T cells were stimulated with anti-CD3/CD28 and co-treated with verteporfin (C1) (1 or 5 μM) for 3 days. Means ± SD are shown. (B) The inhibition (%) of IL-17A by the 1 μM verteporfin (C1) treatment in SLE or RA patients was compared to that of healthy controls (HC). Means ± SEM of are shown. HC, healthy controls; SLE, systemic lupus erythematosus; RA, rheumatoid arthritis.
# KHS (MAP4K5) = target: T2, KHS (MAP4K5) (Homo sapiens, UniProt Q9Y4K4); assay: In vitro kinase assay, myelin basic protein as substrate (ADP-Glo); format: biochemical; settings: recombinant kinase domain
# T2 construct: Recombinant proteins of kinase domains of various MAP4Ks were used; purchased Promega
# T2 sequence (Q9Y4K4 20-277 limits assumed): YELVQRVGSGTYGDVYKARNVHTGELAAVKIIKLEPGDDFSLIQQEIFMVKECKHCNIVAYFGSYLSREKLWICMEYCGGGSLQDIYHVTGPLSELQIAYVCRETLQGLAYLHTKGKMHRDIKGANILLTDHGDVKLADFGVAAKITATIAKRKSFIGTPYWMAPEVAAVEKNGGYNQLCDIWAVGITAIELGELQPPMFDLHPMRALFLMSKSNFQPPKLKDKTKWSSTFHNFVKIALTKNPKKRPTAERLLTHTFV
# CIA mice = assay: Collagen-induced arthritis (CIA) in wild-type C57BL/6J mice; format: in vivo
# Method: At 12 wk of age (d 0), male C57BL/6J mice were intradermally injected in the superficial layer of tail dermis with a total of 100 μl of an emulsion containing the chicken type II chicken collagen or Freund’s complete adjuvant emulsification (MD Biosciences, Oakdale, MN, USA) ([23]). The same injection was repeated intraperitoneally on d 21. Then, clinical signs of disease were assigned using the following clinical scores: 1, swollen digits; 2, erythema; 3, swollen paw or ankle; 4, loss of function. Mice were treated with verteporfin at a concentration of 0.4 μg/g body weight (0.556 nmol/g) by intravenous injection every 3 d starting from d 21 up to d 36.
# Figure 4 Verteporfin (C1) suppresses IL-17 production and autoimmune responses in mice. A–C) Effect of C1 administration (0.4 μg/g body weight every 3 d for a period of 30 d) on serum IL-17A and autoantibodies in 20-wk-old Lck-GLK Tg mice. B) ELISA of serum IL-17A, IL-6, TNF-α, IFN-γ, and IL-17F in Lck-GLK Tg mice treated with C1 or PBS for 16 d. C) ELISA of serum autoantibodies in Lck-GLK Tg mice treated with C1 or PBS for 30 d. Means ± SEM are shown; n = 4/group. D) EAE induction in wild-type C57BL/6J mice treated with PBS or C1 (0.4 μg/g body weight every 3 d). Clinical scores are presented on a scale of 1–5. PBS group, n = 10; C1 group, n = 7. E) ELISA of IL-17A in the sera from MOG-immunized mice at day 16. F) Induction of CIA in wild-type C57BL/6J mice treated with C1 (0.4 μg/g body weight every 3 d) or PBS. Clinical scores are presented on a scale of 1–16; n = 4/group. G) ELISA of serum IL-17A in collagen-immunized mice at d 28. Data shown are representatives of 3 independent experiments. α-dsDNA, anti-dsDNA antibody; ANA, anti-nuclear antibody; N.S., not significant; RF, rheumatoid factor. Means ± SEM are shown. *P < 0.05, **P < 0.01, ***P < 0.001 (2-tailed Student’s t test).
substance,measurement,setting,value
verteporfin,IC50,HPK1 (MAP4K1),7.91 nM
same,inhibition of IL-17A,[1]; T cells of healthy controls,~48%
same,inhibition of IL-17A,[1]; T cells of patients with SLE or RA,~75%
same,IL-17A production,"[1]; T cells from patients with SLE and RA and healthy controls, 1 or 5 μM for 3 d",significantly reduced
same,"production of IL-17A, IL-6, IL-10, TNF-α, and IFN-γ","[1]; high-dose 5 μM, T cells of healthy controls and patients with SLE",significantly inhibited
same,"production of IL-6, IL-10, TNF-α, and IFN-γ","[1]; low-dose 1 μM, T cells from patients with SLE or RA",modestly inhibited
same,IC50,KHS (MAP4K5),43.9 nM
same,"serum levels of IL-6, TNF-α, IFN-γ, and IL-4, CIA",CIA mice; 0.4 μg/g body weight i.v. every 3 d,not significantly decreased
same,"serum IL-17A levels, CIA","CIA mice; 0.4 μg/g body weight i.v. every 3 d, d 28",significantly suppressed
same,"disease severity (clinical score), CIA",CIA mice; 0.4 μg/g body weight i.v. every 3 d from d 21,significantly suppressed
